The results in this text go back to PubChem BioAssay AID623864 (Southern Research Specialized Biocontainment Screening …, 2012).

The structures appear in SMILES notation. Calls of active or inactive are those of the source. The rule behind the calls is not given here.

System in the first assay: not listed separately
Description: VeroE6 cell cytotoxicity, dose response, cytotoxicity control for flavivirus guanylyltransferase probe project (AID 623864). The note with it: VeroE6 cell viability, cytotoxicity CC50; at 50 µM (top of the series).
As to `Cn1c(=O)c2[nH]c(-c3ccc(Cl)cc3)c(O)c2n(C)c1=O`, the viability (commonly the share of living cells, or the viability signal relative to a control) is 72.3% (inactive).

Another assay relates to VeroE6 cell viability, cytotoxicity CC50. The assay is described as above.
Conditions: not given
As to `Cc1cc(F)ccc1S(=O)(=O)Nc1cc(SCC(=O)O)c(O)c2ccccc12`, the CC50 (in general, the concentration at which the toxic effect on the cells reaches its halfway point) is 21.6 µM. Turning to `O=C(O)CSc1cc(NS(=O)(=O)c2cccc3cccnc23)c2ccccc2c1O`, the CC50 was 19.2 µM. `Cc1cc(C)c(S(=O)(=O)Nc2cc(SCC(=O)O)c(O)c3ccccc23)c(C)c1`: the CC50 was 12.6 µM. As to `O=S(=O)(Nc1cc(Cl)c(O)c2ccccc12)c1ccc(F)cc1`, the cytotoxic concentration (CC50) was 29.4 µM. The same measure, in the same setting: the figure for `O=[N+]([O-])c1cccc(S(=O)(=O)Nc2cc(SCc3ccccc3)c(O)c3ccccc23)c1` is 14.4 µM.

For the compound `Cc1ccc(S(=O)(=O)Nc2cc(Sc3nc(C)cc(C)n3)c(O)c3ccccc23)cc1`, the CC50 is 12.8 µM. Regarding `Cc1ccc(S(=O)(=O)Nc2cc(SCC(=O)O)c(O)c3ccccc23)cc1`, the CC50 is 27.6 µM. On to `O=S(=O)(Nc1cc(Sc2ncn[nH]2)c(O)c2ccccc12)c1ccc(F)cc1`, for which the CC50 is 31.7 µM. Still for that read-out and setting: the figure for `O=C(O)CSc1cc(NS(=O)(=O)c2ccc(Br)cc2)c2ccccc2c1O` is 21.6 µM. On the same count and under the same terms, the figure for `O=[N+]([O-])c1cccc(S(=O)(=O)Nc2cc(Sc3nc4ccccc4s3)c(O)c3ccccc23)c1` is 7.37 µM; for `COc1ccc(OC)c(S(=O)(=O)Nc2cc(SCC(=O)O)c(O)c3ccccc23)c1` it is 29.7 µM; for `O=C(O)CSc1cc(NS(=O)(=O)c2cccc([N+](=O)[O-])c2)c2ccccc2c1O` it is 30.9 µM.

Regarding `O=C(O)CSc1cc(NS(=O)(=O)c2ccc(F)cc2)c2ccccc2c1O`, the CC50 was 20 µM. In the case of `O=C(O)CSc1cc(NS(=O)(=O)c2ccc(Cl)cc2)c2ccccc2c1O`, the CC50 is 30.8 µM. With `O=S(=O)(Nc1cc(SCc2ccccc2)c(O)c2ccccc12)c1ccc(Cl)cc1`, the CC50 is 32.3 µM.
